According to patent US20150307520A1, “NOVEL HETEROARYL AND HETEROCYCLE COMPOUNDS, COMPOSITIONS AND METHODS THEREOF” (HUTCHISON MEDIPHARMA LIMITED, priority 2012, published 2015):

Columns and labels:
Type in all cases: biochemical
[1] = target: p110γ (Homo sapiens, UniProt P48736); assay: Transcreener KINASE Assay, kinase inhibition of p110γ; conditions: for PI3Kγ IH % @ 1 uM: 1 uM test compound; for IC50: read-out: PI3Kγ IC50
In short: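 FP read-out: far-red competitive immunoassay sensing ADP produced by recombinant p110/p85 or p110γ enzyme. Reaction 80 min RT, then detection mix 60 min RT. IC50 from curve fit.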

[2] = target: p110β/p85α (Homo sapiens, UniProt P42338); assay: Transcreener KINASE Assay, kinase inhibition of p110β/p85α; conditions: for PI3Kβ IH % @ 1 uM: 1 uM test compound; for IC50: read-out: PI3Kβ IC50
In short: (§1)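 Kinase reactions run 80 min at room temperature, pH buffered with 50 mM HEPES plus 3 mM MgCl2 and 0.03% CHAPS; the PIP2/ATP mix added was 30 uM/10 uM. Generated ADP is then read by FP immunoassay.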

[3] = target: p110δ/p85α (Homo sapiens, UniProt O00329); assay: Transcreener KINASE Assay, kinase inhibition of p110δ/p85α; conditions: for PI3Kδ IH % @ 1 uM: 1 uM test compound; for IC50: read-out: PI3Kδ IC50
In short: as §1

Chain of p110γ (P48736 whole entry): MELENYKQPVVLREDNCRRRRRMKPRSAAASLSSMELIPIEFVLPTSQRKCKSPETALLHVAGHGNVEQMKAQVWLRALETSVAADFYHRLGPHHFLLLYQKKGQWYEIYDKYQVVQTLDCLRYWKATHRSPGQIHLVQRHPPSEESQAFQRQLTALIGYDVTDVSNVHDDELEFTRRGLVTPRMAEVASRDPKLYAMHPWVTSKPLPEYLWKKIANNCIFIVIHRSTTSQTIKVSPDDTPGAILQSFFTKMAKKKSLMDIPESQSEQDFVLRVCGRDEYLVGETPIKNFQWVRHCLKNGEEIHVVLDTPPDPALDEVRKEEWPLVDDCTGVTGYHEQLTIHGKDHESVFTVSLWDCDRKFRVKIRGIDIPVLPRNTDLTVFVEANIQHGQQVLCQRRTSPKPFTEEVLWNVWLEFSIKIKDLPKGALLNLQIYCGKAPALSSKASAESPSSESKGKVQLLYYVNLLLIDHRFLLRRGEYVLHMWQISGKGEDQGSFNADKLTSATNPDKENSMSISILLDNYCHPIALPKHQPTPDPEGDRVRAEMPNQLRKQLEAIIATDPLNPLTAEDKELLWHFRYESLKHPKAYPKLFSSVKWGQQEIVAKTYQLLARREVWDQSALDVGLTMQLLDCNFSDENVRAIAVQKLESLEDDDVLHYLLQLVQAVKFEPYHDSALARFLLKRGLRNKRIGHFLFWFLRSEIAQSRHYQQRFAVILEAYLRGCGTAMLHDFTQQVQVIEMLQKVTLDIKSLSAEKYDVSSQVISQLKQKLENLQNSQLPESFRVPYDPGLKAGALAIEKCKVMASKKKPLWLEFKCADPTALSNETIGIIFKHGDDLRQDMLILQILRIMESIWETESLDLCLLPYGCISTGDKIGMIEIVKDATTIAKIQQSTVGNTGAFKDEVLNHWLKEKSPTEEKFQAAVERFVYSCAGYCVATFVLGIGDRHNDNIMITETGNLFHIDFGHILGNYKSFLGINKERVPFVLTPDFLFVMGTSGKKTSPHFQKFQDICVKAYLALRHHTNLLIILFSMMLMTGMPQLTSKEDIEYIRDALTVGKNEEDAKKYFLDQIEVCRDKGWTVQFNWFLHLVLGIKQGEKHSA
Chain of p110δ/p85α (O00329 whole entry): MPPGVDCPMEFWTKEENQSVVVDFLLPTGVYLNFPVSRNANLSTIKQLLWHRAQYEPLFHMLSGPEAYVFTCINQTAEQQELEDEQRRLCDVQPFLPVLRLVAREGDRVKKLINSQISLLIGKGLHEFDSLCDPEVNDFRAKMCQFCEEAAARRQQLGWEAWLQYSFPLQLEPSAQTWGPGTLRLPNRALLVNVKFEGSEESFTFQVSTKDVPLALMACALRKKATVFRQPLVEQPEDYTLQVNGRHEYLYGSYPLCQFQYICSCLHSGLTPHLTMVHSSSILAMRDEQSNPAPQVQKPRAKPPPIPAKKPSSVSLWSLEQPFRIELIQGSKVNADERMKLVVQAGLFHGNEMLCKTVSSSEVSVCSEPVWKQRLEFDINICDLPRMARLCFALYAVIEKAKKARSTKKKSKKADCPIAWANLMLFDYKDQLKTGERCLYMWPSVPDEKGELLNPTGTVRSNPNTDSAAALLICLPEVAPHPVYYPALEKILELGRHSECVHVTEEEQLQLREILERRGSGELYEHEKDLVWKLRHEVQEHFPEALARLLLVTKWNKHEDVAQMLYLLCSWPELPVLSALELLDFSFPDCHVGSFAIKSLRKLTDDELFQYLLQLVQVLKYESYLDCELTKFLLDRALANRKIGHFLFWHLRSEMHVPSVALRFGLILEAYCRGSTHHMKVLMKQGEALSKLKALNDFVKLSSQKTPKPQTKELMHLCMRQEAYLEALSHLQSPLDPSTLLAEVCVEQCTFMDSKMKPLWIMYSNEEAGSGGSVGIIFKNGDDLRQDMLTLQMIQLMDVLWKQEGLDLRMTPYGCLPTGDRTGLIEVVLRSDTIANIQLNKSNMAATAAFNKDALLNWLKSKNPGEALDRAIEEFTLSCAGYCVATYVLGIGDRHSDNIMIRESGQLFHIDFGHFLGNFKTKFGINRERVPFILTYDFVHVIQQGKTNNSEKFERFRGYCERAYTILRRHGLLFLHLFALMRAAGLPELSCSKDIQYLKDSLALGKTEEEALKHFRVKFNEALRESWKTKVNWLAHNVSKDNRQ
Chain of p110δ/p85α (P27986 whole entry partner): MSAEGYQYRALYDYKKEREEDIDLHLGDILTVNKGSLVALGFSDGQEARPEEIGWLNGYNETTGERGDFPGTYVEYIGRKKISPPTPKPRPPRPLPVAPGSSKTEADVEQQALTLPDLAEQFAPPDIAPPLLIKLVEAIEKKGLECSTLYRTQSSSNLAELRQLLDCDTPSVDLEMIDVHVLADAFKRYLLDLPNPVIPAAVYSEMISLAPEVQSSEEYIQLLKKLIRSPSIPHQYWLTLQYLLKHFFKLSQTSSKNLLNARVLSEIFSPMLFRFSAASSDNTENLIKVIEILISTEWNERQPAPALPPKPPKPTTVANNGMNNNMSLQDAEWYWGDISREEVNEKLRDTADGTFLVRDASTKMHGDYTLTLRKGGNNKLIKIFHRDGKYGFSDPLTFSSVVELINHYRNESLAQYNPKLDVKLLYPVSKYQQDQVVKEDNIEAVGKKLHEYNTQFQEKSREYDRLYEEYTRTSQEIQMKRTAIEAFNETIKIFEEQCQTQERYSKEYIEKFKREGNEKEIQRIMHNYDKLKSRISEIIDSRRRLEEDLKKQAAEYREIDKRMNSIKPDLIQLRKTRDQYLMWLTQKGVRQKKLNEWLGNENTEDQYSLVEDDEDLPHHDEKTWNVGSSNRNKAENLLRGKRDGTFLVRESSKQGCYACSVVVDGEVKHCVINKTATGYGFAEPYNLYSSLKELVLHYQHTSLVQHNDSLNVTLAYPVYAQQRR
Chain of p110β/p85α (P42338 whole entry): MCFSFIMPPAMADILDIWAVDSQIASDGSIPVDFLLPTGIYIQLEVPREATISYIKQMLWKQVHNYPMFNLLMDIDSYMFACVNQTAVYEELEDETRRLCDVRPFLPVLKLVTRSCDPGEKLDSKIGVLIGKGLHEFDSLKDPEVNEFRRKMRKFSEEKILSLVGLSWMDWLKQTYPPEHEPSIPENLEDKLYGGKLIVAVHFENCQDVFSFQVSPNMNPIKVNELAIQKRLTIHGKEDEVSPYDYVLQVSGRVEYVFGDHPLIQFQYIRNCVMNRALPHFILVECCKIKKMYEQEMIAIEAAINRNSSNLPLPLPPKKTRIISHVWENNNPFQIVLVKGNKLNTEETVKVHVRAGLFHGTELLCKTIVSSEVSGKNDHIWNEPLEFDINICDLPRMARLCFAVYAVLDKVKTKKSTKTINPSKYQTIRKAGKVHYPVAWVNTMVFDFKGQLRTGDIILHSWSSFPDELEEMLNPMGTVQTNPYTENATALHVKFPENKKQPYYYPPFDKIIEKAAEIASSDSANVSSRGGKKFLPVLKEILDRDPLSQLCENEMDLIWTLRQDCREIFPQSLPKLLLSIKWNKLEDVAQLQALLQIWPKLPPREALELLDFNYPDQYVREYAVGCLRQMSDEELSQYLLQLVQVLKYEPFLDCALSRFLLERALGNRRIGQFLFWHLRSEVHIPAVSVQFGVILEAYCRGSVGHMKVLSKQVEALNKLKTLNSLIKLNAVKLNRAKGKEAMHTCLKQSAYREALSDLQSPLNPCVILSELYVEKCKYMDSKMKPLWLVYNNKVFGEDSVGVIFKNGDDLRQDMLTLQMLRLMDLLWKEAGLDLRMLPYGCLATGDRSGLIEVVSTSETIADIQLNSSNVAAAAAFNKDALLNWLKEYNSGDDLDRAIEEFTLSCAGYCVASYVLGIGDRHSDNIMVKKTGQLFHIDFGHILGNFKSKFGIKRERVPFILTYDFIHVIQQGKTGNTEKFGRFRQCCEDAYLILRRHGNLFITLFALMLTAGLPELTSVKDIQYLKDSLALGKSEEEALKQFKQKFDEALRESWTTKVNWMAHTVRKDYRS
Chain of p110β/p85α (P27986 2-724 partner): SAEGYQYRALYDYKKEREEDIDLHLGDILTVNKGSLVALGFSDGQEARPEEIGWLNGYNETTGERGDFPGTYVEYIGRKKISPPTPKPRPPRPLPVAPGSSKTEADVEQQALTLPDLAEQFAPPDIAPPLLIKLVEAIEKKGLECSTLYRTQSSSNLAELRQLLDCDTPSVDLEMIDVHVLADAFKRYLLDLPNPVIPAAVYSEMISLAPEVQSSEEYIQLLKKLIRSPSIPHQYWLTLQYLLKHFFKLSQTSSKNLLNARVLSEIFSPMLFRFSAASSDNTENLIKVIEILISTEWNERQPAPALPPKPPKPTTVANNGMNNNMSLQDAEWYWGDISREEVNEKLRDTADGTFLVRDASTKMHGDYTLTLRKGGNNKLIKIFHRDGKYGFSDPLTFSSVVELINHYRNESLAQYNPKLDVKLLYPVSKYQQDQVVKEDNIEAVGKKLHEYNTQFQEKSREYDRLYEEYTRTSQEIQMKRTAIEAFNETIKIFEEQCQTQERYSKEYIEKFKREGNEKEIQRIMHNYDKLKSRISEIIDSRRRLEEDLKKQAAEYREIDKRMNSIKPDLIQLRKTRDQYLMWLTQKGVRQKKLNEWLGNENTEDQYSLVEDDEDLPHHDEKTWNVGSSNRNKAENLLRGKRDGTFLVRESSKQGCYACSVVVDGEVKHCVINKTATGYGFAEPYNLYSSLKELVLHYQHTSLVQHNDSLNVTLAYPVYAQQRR

CC(=O)c1c(N)ncnc1N1CC[C@H]1c1nn2ccc(Cl)c2c(=O)n1-c1ccccc1 [Compound 300]
PI3Kγ IH % @ 1 uM [1]: 82.7%
IC50 [1]: 148 nM
PI3Kβ IH % @ 1 uM [2]: 51.5%
PI3Kδ IH % @ 1 uM [3]: 99.1%
IC50 [3]: 29 nM

CC(=O)c1cnc(N)nc1N1CC[C@H]1c1nn2ccc(Cl)c2c(=O)n1-c1ccc(F)cc1 [Compound 302]
PI3Kγ IH % @ 1 uM [1]: 98.6%
IC50 [1]: 8 nM
PI3Kβ IH % @ 1 uM [2]: 57.8%
PI3Kδ IH % @ 1 uM [3]: 96.5%
IC50 [3]: 77 nM

O=c1c2c(Cl)ccn2nc([C@@H]2CCCN2c2ncnc3[nH]cc(C4=NCCO4)c23)n1-c1ccccc1 [Compound 303, (S)-5-chloro-2-(1-(5-(4,5-dihydrooxazol-2-yl)-7H-pyrrolo[2,3-d]pyrimidin-4-yl)pyrrolidin-2-yl)-3-phenylpyrrolo[2,1-f][1,2,4]triazin-4(3H)-one]
PI3Kγ IH % @ 1 uM [1]: 94.6%
IC50 [1]: 1 nM
PI3Kβ IH % @ 1 uM [2]: 92.7%
IC50 [2]: 21 nM
PI3Kδ IH % @ 1 uM [3]: 97.2%
IC50 [3]: 1 nM

O=C(NCCO)c1c[nH]c2ncnc(N3CC[C@H]3c3nn4ccc(Cl)c4c(=O)n3-c3ccccc3)c12 [Compound 304]
PI3Kγ IH % @ 1 uM [1]: 93.6%
PI3Kβ IH % @ 1 uM [2]: 47.4%
PI3Kδ IH % @ 1 uM [3]: 98.2%
IC50 [3]: 42 nM

O=c1c2c(Cl)ccn2nc([C@@H]2CCN2c2ncnc3[nH]cc(C4=NCCO4)c23)n1-c1ccccc1 [Compound 305]
PI3Kγ IH % @ 1 uM [1]: 97.6%
IC50 [1]: 7 nM
PI3Kβ IH % @ 1 uM [2]: 91.6%
IC50 [2]: 125 nM
PI3Kδ IH % @ 1 uM [3]: >100%
IC50 [3]: 21 nM

C/C(=N\O)c1c[nH]c2ncnc(N3CCC[C@H]3c3nn4ccc(Cl)c4c(=O)n3-c3ccccc3)c12 [Compound 306, (S)-5-chloro-2-(1-(5-(1-(hydroxyimino)ethyl)-7H-pyrrolo[2,3-d]pyrimidin-4-yl)pyrrolidin-2-yl)-3-phenylpyrrolo[2,1-f][1,2,4]triazin-4(3H)-one]
PI3Kγ IH % @ 1 uM [1]: >100%
IC50 [1]: 29 nM
PI3Kβ IH % @ 1 uM [2]: 92.8%
IC50 [2]: 16 nM
PI3Kδ IH % @ 1 uM [3]: >100%
IC50 [3]: 11 nM

CC(=O)Nc1c[nH]c2ncnc(N3CCC[C@H]3c3nn4ccc(Cl)c4c(=O)n3-c3ccccc3)c12 [Compound 307, (S)—N-(4-(2-(5-chloro-4-oxo-3-phenyl-3,4-dihydropyrrolo[2,1-f][1,2,4]triazin-2-yl)pyrrolidin-1-yl)-7H-pyrrolo[2,3-d]pyrimidin-5-yl)acetamide]
PI3Kγ IH % @ 1 uM [1]: 95.9%
IC50 [1]: 32 nM
PI3Kβ IH % @ 1 uM [2]: 80.7%
IC50 [2]: 213 nM
PI3Kδ IH % @ 1 uM [3]: 98.9%
IC50 [3]: 5 nM

N#Cc1c[nH]c2ncnc(N3CC[C@H]3c3nn4ccc(Cl)c4c(=O)n3-c3ccccn3)c12 [Compound 309, (S)-4-(2-(5-chloro-4-oxo-3-(pyridin-2-yl)-3,4-dihydropyrrolo[2,1-f][1,2,4]triazin-2-yl)azetidin-1-yl)-7H-pyrrolo[2,3-d]pyrimidine-5-carbonitrile]
PI3Kγ IH % @ 1 uM [1]: 94.6%
IC50 [1]: 99 nM
PI3Kβ IH % @ 1 uM [2]: 35.5%
PI3Kδ IH % @ 1 uM [3]: >100%
IC50 [3]: 11 nM

CC(=O)c1c[nH]c2ncnc(N3CC[C@H]3c3nn4ccc(Cl)c4c(=O)n3-c3ccccn3)c12 [Compound 312]
PI3Kγ IH % @ 1 uM [1]: 93.7%
IC50 [1]: 67 nM
PI3Kβ IH % @ 1 uM [2]: 20.0%
PI3Kδ IH % @ 1 uM [3]: 97.1%
IC50 [3]: 23 nM

O=c1c2c(F)ccn2nc([C@@H]2CCCN2c2ncnc3[nH]cnc23)n1-c1ccccn1 [Compound 313]
PI3Kγ IH % @ 1 uM [1]: 77.2%
IC50 [1]: 423 nM
PI3Kβ IH % @ 1 uM [2]: 52.6%
PI3Kδ IH % @ 1 uM [3]: 100.0%
IC50 [3]: 3 nM

Nc1nc(N2CC[C@H]2c2nn3ccc(Cl)c3c(=O)n2-c2ccccc2)n2ncc(Cl)c2n1 [Compound 314, (S)-2-(1-(2-amino-8-chloropyrazolo[1,5-a][1,3,5]triazin-4-yl)azetidin-2-yl)-5-chloro-3-phenylpyrrolo[2,1-f][1,2,4]triazin-4(3H)-one]
PI3Kγ IH % @ 1 uM [1]: 54.1%
PI3Kβ IH % @ 1 uM [2]: 16.8%
PI3Kδ IH % @ 1 uM [3]: 17.2%

N#Cc1cc2nc(N)nc(N3CCC[C@H]3c3nn4ccc(Cl)c4c(=O)n3-c3ccccc3)n2n1 [Compound 320]
PI3Kγ IH % @ 1 uM [1]: 55.9%
PI3Kβ IH % @ 1 uM [2]: 5.5%
PI3Kδ IH % @ 1 uM [3]: 29.1%

CC(=O)c1cnc(N)nc1N1CCCC1c1cn2ccc(Cl)c2c(=O)n1-c1ccccc1 (stereo not drawn) [Compound 321]
PI3Kγ IH % @ 1 uM [1]: >100%
IC50 [1]: 11 nM
PI3Kβ IH % @ 1 uM [2]: 80.5%
IC50 [2]: 218 nM
PI3Kδ IH % @ 1 uM [3]: 100.0%
IC50 [3]: 5 nM

Cc1nc(N)nc(N2CC[C@H]2c2nn3ccc(F)c3c(=O)n2-c2ccccc2)c1C#N [Compound 322]
PI3Kγ IH % @ 1 uM [1]: >100%
IC50 [1]: 27 nM
PI3Kβ IH % @ 1 uM [2]: 58.0%
PI3Kδ IH % @ 1 uM [3]: 99.5%
IC50 [3]: 5 nM

CC(=O)c1cnc(N)nc1N1CC[C@H]1c1nn2ccc(F)c2c(=O)n1-c1ccccc1 [Compound 323]
PI3Kγ IH % @ 1 uM [1]: >100%
IC50 [1]: 21 nM
PI3Kβ IH % @ 1 uM [2]: 6.1%
PI3Kδ IH % @ 1 uM [3]: 99.4%
IC50 [3]: 12 nM

CC(=O)c1cnc(N)nc1N1C[C@H](C)[C@H]1c1nn2ccc(F)c2c(=O)n1-c1ccccc1 [Compound 324]
PI3Kγ IH % @ 1 uM [1]: >100%
IC50 [1]: 5 nM
PI3Kβ IH % @ 1 uM [2]: 67.1%
IC50 [2]: 456 nM
PI3Kδ IH % @ 1 uM [3]: 98.8%
IC50 [3]: 1 nM

Nc1ncc(C(=O)C2CC2)c(N2CC[C@H]2c2nn3ccc(Cl)c3c(=O)n2-c2ccccc2)n1 [Compound 326]
PI3Kγ IH % @ 1 uM [1]: 50.7%
PI3Kβ IH % @ 1 uM [2]: −23.5%
PI3Kδ IH % @ 1 uM [3]: 7.1%

Nc1nc2c(c(N3CCCC3c3cn4ccc(Cl)c4c(=O)n3-c3ccccc3)n1)C(=O)CCN2 (stereo not drawn) [Compound 327]
PI3Kγ IH % @ 1 uM [1]: 97.2%
IC50 [1]: 1 nM
PI3Kβ IH % @ 1 uM [2]: 73.4%
IC50 [2]: 250 nM
PI3Kδ IH % @ 1 uM [3]: 99.5%
IC50 [3]: 2 nM

Nc1nc(N2CCC[C@H]2c2nn3ccc(Cl)c3c(=O)n2-c2ccccc2)c2cccn2n1 [Compound 331]
PI3Kγ IH % @ 1 uM [1]: >100%
IC50 [1]: 147 nM
PI3Kβ IH % @ 1 uM [2]: 20.9%
PI3Kδ IH % @ 1 uM [3]: 71.9%
IC50 [3]: 121 nM

Nc1nc(N2CC[C@H]2c2nn3ccc(Cl)c3c(=O)n2-c2ccccc2)c2ncccc2n1 [Compound 334]
PI3Kγ IH % @ 1 uM [1]: 82.1%
IC50 [1]: 68 nM
PI3Kβ IH % @ 1 uM [2]: 11.2%
PI3Kδ IH % @ 1 uM [3]: 25.7%

Nc1nc(N2CCC[C@H]2c2nn3ccc(Cl)c3c(=O)n2-c2ccccc2)c2ncccc2n1 [Compound 335]
PI3Kγ IH % @ 1 uM [1]: 69.5%
PI3Kβ IH % @ 1 uM [2]: 17.0%
PI3Kδ IH % @ 1 uM [3]: 48.4%

N#Cc1c[nH]c2ncnc(N3CCC[C@H]3c3nn4ccc(Cl)c4c(=O)n3-c3ccccn3)c12 [Compound 337, (S)-4-(2-(5-chloro-4-oxo-3-(pyridin-2-yl)-3,4-dihydropyrrolo[2,1-f][1,2,4]triazin-2-yl)pyrrolidin-1-yl)-7H-pyrrolo[2,3-d]pyrimidine-5-carbonitrile]
PI3Kγ IH % @ 1 uM [1]: >100%
IC50 [1]: 5 nM
PI3Kβ IH % @ 1 uM [2]: 93.2%
IC50 [2]: 21 nM
PI3Kδ IH % @ 1 uM [3]: 99.2%
IC50 [3]: 1 nM

CC(=O)c1c[nH]c2ncnc(N3CCC[C@H]3c3nn4ccc(Cl)c4c(=O)n3-c3ccccn3)c12 [Compound 340]
PI3Kγ IH % @ 1 uM [1]: 94.3%
IC50 [1]: 9 nM
PI3Kβ IH % @ 1 uM [2]: 76.1%
IC50 [2]: 163 nM
PI3Kδ IH % @ 1 uM [3]: 100.0%
IC50 [3]: 1 nM

Cc1cccc(-n2c([C@@H]3CCCN3c3ncnc4[nH]cnc34)nn3ccc(Cl)c3c2=O)n1 [Compound 342]
PI3Kγ IH % @ 1 uM [1]: 77.1%
IC50 [1]: 272 nM
PI3Kβ IH % @ 1 uM [2]: 45.2%
PI3Kδ IH % @ 1 uM [3]: 92.1%
IC50 [3]: 38 nM

O=c1c2c(Cl)ccn2nc([C@@H]2CCCN2c2ncnc3[nH]cnc23)n1-c1ccncn1 [Compound 344]
PI3Kγ IH % @ 1 uM [1]: 85.5%
IC50 [1]: 81 nM
PI3Kβ IH % @ 1 uM [2]: 57.3%
PI3Kδ IH % @ 1 uM [3]: 94.8%
IC50 [3]: 85 nM

N#Cc1c[nH]c2ncnc(N3C[C@@H](F)C[C@H]3c3nn4ccc(Cl)c4c(=O)n3-c3ccccn3)c12 [Compound 345]
PI3Kγ IH % @ 1 uM [1]: 97.1%
IC50 [1]: 4 nM
PI3Kβ IH % @ 1 uM [2]: 93.2%
IC50 [2]: 28 nM
PI3Kδ IH % @ 1 uM [3]: >100%
IC50 [3]: 1 nM

N#Cc1c[nH]c2ncnc(N3C[C@@H](F)C[C@H]3c3nn4ccc(F)c4c(=O)n3-c3ccccn3)c12 [Compound 346]
PI3Kγ IH % @ 1 uM [1]: 94.1%
IC50 [1]: 26 nM
PI3Kβ IH % @ 1 uM [2]: 86.1%
IC50 [2]: 47 nM
PI3Kδ IH % @ 1 uM [3]: >100%
IC50 [3]: 2 nM

N#C[C@H]1C[C@@H](c2nn3ccc(Cl)c3c(=O)n2-c2cccc(F)c2)N(c2ncnc3[nH]cnc23)C1 [Compound 347, (3S,5S)-5-(5-chloro-3-(3-fluorophenyl)-4-oxo-3,4-dihydropyrrolo[2,1-f][1,2,4]triazin-2-yl)-1-(9H-purin-6-yl)pyrrolidine-3-carbonitrile]
PI3Kγ IH % @ 1 uM [1]: 91.8%
IC50 [1]: 13 nM
PI3Kβ IH % @ 1 uM [2]: 87.8%
IC50 [2]: 70 nM
PI3Kδ IH % @ 1 uM [3]: 98.3%
IC50 [3]: 2 nM

C[S@+]([O-])c1c[nH]c2ncnc(N3C[C@@H](C#N)C[C@H]3c3nn4ccc(Cl)c4c(=O)n3-c3cccc(F)c3)c12 [Compound 348, (3S,5S)-5-(5-chloro-3-(3-fluorophenyl)-4-oxo-3,4-dihydropyrrolo[2,1-f][1,2,4]triazin-2-yl)-1-(5-((S)-methylsulfinyl)-7H-pyrrolo[2,3-d]pyrimidin-4-yl)pyrrolidine-3-carbonitrile]
PI3Kγ IH % @ 1 uM [1]: 75.6%
IC50 [1]: 312 nM
PI3Kβ IH % @ 1 uM [2]: 51.2%
PI3Kδ IH % @ 1 uM [3]: 96.9%
IC50 [3]: 39 nM
